Measured values published in patent US20250066423A1, “SESTRIN-MAPK COMPLEX INHIBITORS” (Sentcell Ltd, priority 2021, published 2025).
Peptide text beside a SMILES is read from it.

Target: T1, recombinant sestrin 3 (Homo sapiens, UniProt P58005)
T1 sequence (P58005 1-492): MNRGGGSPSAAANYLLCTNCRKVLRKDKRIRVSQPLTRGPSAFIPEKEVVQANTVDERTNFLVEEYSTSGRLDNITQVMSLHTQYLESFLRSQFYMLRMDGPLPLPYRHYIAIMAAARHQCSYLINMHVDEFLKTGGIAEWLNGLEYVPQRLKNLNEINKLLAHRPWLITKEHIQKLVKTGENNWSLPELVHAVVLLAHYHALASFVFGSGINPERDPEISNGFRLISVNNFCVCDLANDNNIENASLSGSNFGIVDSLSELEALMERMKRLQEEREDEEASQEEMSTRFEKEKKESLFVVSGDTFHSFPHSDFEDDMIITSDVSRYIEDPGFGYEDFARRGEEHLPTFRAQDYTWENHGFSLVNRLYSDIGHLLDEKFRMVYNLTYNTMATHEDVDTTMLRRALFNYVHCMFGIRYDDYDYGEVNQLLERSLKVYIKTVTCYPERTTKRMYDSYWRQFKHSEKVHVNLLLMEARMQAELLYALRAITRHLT
Experiment: Streptavidin pull-down of biotinylated DOS46L with flag recombinant sestrins
Type: binding
Conditions: in vitro
Procedure: However, it should be considered that direct binding is not a pre-requisite for DOS sestrin inhibitory function.
(A) Biotinylated DOS46L was mixed with flag recombinant Sestrins, immunoprecipitated with streptavidin and immunoblotted with flag Sestrins. […] Representative images from three experiments are shown. […] (D) DOS46L binds to the entire sMAC complex in CD4 T cells. CD4+ T cells were isolated from PBMCs from healthy donors and treated with biotinylated DOS46L compound (10 uM) for 4 hours. Cells were harvested for immunoprecipitation analysis.

Structure (SMILES): CC[C@H](C)[C@@H]1NC(=O)[C@H](Cc2ccccc2)NC(=O)[C@H](C)NC(=O)[C@H](C(C)C)NC(=O)[C@@H]2CCCN2C1=O [DOS46L] (cyclo(AFIPV))
- direct binding to recombinant sestrin 3: does not directly bind
